Reference: ChEMBL document CHEMBL5465560, “Selectivity Literature for EUbOPEN Chemogenomic Library” (2024)

What was measured:
[1] = biological target: Non-receptor tyrosine-protein kinase TYK2 (Homo sapiens, UniProt P29597); test: Selectivity interaction (KinomeScan (DiscoverX)) EUB0001049a TYK2; settings: at 1 µM
[2] = tested on: Tyrosine-protein kinase ABL1 (Homo sapiens), P00519 [F317L]; test: Selectivity interaction (KinomeScan (DiscoverX)) EUB0000229b ABL1; settings: at 1 µM
[3] = biological target: Mitogen-activated protein kinase 10 (Homo sapiens, UniProt P53779); test: Selectivity interaction (KinomeScan (DiscoverX)) EUB0001079a MAPK10; settings: at 1 µM
Chain of Mitogen-activated protein kinase 10 (P53779 whole entry): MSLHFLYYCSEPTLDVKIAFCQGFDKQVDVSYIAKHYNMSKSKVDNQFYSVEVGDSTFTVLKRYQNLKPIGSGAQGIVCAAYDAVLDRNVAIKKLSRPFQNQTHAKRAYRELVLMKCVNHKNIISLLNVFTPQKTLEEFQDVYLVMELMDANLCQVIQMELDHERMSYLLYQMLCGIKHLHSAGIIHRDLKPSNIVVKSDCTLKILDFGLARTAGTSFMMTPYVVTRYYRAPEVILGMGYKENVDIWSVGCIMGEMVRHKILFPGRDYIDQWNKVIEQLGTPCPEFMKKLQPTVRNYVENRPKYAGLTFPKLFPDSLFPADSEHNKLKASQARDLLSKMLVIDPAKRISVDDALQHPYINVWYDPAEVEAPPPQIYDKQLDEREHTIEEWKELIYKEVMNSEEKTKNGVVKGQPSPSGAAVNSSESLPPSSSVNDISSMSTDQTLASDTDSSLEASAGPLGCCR

[4] = biological target: T1, TGF-beta receptor type-1 (Homo sapiens) (UniProt P36897); test: Selectivity interaction (KinomeScan (DiscoverX)) EUB0001079a TGFBR1; settings: at 1 µM
T1 sequence (whole entry): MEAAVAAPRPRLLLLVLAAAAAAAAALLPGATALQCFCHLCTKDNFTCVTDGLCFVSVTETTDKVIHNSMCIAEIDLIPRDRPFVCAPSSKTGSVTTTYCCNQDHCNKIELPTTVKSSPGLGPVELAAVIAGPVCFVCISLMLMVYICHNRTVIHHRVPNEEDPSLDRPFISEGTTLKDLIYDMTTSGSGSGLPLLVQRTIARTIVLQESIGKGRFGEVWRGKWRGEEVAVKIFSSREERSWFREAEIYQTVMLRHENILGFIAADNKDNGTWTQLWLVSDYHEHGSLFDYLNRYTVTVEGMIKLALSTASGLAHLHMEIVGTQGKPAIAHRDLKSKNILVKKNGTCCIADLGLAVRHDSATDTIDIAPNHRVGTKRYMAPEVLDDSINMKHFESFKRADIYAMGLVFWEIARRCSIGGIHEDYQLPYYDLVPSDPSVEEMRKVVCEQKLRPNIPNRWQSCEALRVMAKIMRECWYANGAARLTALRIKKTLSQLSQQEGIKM

[5] = biological target: Tyrosine-protein kinase SYK (Homo sapiens, UniProt P43405); test: Selectivity interaction (Kinase panel (33PanQinase(R) Activity Assay)) EUB0000877a SYK
[6] = tested on: Tyrosine-protein kinase ABL1 (Homo sapiens), P00519 [M351T]; settings: at 10 µM
[7] = biological target: Putative phosphatidylinositol 4-kinase alpha-like protein P2 (Homo sapiens) (UniProt A4QPH2); test: Selectivity interaction (ActivX KiNativ screen (kinase selectivity in THP-1 cell lysates)) EUB0000639a PI4KAP2; format: subcellular; settings: lysate
Chain of Putative phosphatidylinositol 4-kinase alpha-like protein P2 (Homo sapiens) (A4QPH2 whole entry): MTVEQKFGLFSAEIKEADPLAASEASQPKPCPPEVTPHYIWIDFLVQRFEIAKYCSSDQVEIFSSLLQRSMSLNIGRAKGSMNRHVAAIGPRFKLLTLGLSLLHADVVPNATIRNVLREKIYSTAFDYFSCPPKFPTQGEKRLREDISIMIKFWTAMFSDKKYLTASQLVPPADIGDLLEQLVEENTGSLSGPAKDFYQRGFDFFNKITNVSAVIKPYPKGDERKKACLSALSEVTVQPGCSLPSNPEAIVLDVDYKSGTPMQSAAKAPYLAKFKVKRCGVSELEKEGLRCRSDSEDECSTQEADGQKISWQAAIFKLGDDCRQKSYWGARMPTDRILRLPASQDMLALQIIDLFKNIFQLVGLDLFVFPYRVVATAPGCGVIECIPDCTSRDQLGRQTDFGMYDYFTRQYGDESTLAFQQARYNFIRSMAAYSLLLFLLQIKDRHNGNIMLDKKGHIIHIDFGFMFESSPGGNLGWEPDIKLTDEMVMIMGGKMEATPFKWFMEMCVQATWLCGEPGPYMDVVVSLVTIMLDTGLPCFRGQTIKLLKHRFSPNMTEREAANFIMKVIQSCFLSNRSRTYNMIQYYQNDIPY

[8] = biological target: Ribosomal protein S6 kinase beta-1 (Homo sapiens, UniProt P23443); test: Selectivity interaction (ActivX KiNativ screen (kinase selectivity in THP-1 cell lysates)) EUB0000639a RPS6KB1; format: subcellular; settings: lysate, at 0.01 µM
Chain of Ribosomal protein S6 kinase beta-1 (P23443 whole entry, looked up): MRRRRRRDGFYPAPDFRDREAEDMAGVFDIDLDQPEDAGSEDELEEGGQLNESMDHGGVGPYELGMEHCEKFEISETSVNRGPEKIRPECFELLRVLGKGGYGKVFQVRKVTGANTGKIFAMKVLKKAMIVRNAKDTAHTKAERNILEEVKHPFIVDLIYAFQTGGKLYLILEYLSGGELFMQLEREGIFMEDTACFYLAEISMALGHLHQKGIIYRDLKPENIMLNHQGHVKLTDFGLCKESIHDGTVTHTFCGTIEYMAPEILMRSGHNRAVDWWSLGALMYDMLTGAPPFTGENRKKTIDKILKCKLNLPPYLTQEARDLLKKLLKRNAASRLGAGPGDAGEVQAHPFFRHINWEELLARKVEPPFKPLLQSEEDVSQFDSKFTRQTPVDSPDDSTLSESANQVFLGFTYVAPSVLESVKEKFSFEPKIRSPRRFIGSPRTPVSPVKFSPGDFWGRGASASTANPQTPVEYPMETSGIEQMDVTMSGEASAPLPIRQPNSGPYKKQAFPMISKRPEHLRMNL

[9] = biological target: T2, Tyrosine-protein kinase Tec (Homo sapiens) (UniProt P42680); test: Selectivity interaction (ActivX KiNativ screen (kinase selectivity in THP-1 cell lysates)) EUB0000639a TEC; format: subcellular; settings: lysate, at 0.01 µM
T2 sequence (whole entry): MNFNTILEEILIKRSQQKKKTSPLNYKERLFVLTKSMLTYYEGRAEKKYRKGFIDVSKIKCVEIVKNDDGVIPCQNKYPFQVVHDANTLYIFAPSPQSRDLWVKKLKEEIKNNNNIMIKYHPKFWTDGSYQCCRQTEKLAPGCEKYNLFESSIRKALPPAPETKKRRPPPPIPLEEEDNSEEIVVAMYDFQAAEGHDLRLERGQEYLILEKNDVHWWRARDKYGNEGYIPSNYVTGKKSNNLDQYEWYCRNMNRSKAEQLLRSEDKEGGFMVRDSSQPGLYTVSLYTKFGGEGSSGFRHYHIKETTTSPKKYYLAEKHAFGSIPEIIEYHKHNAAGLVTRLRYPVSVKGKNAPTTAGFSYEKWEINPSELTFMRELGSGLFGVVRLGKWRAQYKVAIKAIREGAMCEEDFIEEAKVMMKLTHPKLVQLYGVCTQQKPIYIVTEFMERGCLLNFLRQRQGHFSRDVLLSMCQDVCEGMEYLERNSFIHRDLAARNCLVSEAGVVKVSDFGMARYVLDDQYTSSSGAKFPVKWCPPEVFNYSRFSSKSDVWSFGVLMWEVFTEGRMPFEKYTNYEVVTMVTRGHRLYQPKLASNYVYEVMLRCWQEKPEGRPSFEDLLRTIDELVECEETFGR

[10] = biological target: Mitogen-activated protein kinase kinase kinase 1 (Homo sapiens, UniProt Q13233); test: Selectivity interaction (KinomeScan (DiscoverX)) EUB0000595a MAP3K1; settings: at 10 µM
[11] = biological target: Serine/threonine-protein kinase pim-1 (Homo sapiens, UniProt P11309); test: Selectivity interaction (Kinase screening (Nanosyn)) EUB0000604a PIM1
Chain of Serine/threonine-protein kinase pim-1 (P11309 whole entry, looked up): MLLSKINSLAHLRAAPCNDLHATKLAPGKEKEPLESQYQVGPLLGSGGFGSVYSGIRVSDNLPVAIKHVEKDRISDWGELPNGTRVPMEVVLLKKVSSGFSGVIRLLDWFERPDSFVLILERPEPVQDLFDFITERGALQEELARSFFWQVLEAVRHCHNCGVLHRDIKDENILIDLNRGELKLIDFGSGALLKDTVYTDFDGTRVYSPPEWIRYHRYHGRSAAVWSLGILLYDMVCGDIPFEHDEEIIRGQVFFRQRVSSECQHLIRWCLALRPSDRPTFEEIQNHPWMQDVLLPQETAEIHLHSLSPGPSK

[12] = biological target: T3, Cyclin-dependent kinase 11A (Homo sapiens) (UniProt Q9UQ88); test: Selectivity interaction (KinomeScan (DiscoverX)) EUB0001619a CDK11A; settings: at 1 µM
T3 sequence (whole entry): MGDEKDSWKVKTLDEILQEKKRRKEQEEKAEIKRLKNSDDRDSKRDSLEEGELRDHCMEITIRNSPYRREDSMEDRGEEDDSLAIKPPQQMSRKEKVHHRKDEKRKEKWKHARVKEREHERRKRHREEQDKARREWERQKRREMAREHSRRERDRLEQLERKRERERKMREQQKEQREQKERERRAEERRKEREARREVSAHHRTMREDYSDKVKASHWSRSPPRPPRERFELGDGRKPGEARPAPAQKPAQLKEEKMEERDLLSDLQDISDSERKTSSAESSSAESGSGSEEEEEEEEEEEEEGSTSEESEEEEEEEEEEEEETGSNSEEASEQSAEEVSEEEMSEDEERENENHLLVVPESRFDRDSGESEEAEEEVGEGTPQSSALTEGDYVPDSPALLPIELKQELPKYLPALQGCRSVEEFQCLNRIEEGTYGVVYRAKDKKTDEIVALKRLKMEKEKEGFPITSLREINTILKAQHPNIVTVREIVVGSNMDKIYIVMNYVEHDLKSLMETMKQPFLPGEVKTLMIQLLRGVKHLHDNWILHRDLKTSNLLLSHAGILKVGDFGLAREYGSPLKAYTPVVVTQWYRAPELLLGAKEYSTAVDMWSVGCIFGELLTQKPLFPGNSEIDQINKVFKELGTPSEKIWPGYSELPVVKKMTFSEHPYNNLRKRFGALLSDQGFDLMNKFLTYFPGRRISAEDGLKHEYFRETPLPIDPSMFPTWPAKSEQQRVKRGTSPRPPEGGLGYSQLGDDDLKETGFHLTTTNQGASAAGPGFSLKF

[13] = biological target: RAC-alpha serine/threonine-protein kinase (Homo sapiens, UniProt P31749); test: Selectivity interaction (KinomeScan (DiscoverX)) EUB0000607a AKT1; settings: at 10 µM
Chain of RAC-alpha serine/threonine-protein kinase (P31749 whole entry): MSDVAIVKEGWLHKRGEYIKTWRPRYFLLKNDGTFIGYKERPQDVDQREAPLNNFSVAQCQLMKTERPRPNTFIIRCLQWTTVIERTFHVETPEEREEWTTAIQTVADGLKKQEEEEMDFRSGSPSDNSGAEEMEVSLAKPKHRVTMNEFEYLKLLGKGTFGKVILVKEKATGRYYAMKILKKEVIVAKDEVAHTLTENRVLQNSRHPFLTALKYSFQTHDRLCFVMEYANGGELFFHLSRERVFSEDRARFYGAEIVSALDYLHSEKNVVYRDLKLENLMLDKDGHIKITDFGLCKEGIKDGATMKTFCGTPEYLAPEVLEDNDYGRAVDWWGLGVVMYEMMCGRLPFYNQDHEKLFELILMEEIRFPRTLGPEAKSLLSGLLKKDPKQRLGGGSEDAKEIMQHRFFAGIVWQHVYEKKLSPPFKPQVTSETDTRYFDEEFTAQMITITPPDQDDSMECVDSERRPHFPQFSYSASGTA

[14] = biological target: Calcium/calmodulin-dependent protein kinase type II subunit gamma (Homo sapiens) (UniProt Q13555); test: Selectivity interaction (LanthaScreen Eu Kinase Binding Assay) EUB0001632a CAMK2G; settings: at 10 µM
Chain of Calcium/calmodulin-dependent protein kinase type II subunit gamma (Homo sapiens) (Q13555 whole entry): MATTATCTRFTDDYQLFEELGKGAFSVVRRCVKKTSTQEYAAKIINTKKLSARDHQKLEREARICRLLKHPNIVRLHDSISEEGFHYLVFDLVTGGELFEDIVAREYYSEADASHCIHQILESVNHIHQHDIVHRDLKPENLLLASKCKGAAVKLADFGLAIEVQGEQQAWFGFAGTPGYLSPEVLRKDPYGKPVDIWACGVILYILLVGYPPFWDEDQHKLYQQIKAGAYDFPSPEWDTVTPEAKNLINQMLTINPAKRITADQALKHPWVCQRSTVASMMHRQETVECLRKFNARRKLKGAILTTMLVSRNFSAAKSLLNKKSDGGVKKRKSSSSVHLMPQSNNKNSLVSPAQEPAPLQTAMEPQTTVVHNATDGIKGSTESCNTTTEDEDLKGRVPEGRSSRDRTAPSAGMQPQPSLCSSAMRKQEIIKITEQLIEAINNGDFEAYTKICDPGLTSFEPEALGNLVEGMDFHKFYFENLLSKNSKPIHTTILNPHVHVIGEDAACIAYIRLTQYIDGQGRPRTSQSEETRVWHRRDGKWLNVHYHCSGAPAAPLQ

Chain of Non-receptor tyrosine-protein kinase TYK2 (P29597 whole entry): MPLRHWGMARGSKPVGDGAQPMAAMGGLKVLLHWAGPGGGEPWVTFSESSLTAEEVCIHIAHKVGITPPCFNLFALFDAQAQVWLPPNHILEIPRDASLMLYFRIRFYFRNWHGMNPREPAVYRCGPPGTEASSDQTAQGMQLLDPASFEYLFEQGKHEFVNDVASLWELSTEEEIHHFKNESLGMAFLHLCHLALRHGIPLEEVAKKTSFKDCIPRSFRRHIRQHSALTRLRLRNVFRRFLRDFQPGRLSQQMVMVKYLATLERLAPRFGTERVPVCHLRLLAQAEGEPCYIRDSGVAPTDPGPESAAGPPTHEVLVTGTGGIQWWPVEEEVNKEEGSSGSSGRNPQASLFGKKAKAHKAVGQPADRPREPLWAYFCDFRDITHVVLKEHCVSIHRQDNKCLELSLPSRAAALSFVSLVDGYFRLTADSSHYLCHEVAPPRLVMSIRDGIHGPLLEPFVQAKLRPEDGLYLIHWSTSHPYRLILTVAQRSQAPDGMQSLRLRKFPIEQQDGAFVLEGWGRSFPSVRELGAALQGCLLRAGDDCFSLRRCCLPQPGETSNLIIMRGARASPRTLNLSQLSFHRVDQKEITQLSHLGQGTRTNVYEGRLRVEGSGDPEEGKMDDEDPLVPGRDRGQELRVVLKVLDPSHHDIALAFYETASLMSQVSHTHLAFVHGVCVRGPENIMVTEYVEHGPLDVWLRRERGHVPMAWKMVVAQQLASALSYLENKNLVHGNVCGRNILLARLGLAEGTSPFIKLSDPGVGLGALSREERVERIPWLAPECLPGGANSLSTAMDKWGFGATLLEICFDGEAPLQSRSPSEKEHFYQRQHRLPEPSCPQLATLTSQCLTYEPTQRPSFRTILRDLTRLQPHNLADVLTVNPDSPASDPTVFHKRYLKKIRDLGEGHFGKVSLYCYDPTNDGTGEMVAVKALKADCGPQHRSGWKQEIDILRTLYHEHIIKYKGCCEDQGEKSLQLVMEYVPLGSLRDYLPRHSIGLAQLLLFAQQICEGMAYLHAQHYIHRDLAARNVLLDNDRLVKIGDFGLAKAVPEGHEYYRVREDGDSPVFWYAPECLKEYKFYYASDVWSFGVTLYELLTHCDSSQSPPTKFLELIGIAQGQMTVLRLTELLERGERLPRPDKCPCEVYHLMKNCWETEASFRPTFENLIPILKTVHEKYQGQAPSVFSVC

COc1cc(Nc2nc(C)cc(-c3cnn4nc(OC)ccc34)n2)cc(C(F)(F)F)c1
% of control [1]: 61%

COc1cc(N(C)c2ccnc3ccc(C(F)(F)F)cc23)cc(OC)c1OC
% binding [2]: 90%

Nc1cnc(N2CCc3cc(S(=O)(=O)Nc4c(F)cc(Cl)cc4F)cc(N4CCCC4=O)c32)nc1 [TP-020n]
% of control [3]: 94%
% of control [4]: 100%

CCC(=O)N1CC[C@H](Nc2ncnc3c2CN(c2cnc(OC)c(C(F)(F)F)c2)CC3)C1 [LENIOLISIB]
IC50 [5]: > 10 µM

CCN(CC)CCCCNc1ncc2cc(-c3cc(OC)cc(OC)c3)c(NC(=O)NC(C)(C)C)nc2n1
% of control [6]: 100%

CC[C@@H]1[C@H](F)C(=O)N[C@@H]1COc1nccc2cc(C(N)=O)c(OC)cc12 [ZIMLOVISERTIB]
% of inhibition ([7]; at 0.01 µM): 7.2%
% of inhibition ([7]; at 0.04 µM): -7.1%
% of inhibition ([7]; at 0.2 µM): -24.4%
% of inhibition ([7]; at 1 µM): -6%
% of inhibition ([7]; at 5 µM): 38.5%
% of inhibition [8]: -0.4%
% of inhibition [9]: -72.2%

COCC(=O)NC/C=C/c1ccc2ncnc(Nc3ccc(Oc4ccc(C)nc4)c(C)c3)c2c1 [CP-724714]
% of control [10]: 100%

Cc1cnc(Nc2ccc(F)cc2Cl)nc1-c1c[nH]c(C(=O)N[C@H](CO)c2cccc(Cl)c2)c1
% of inhibition [11]: 0%

N#Cc1cccc(-c2c[nH]c3ncnc(N4CCOCC4)c23)c1
% of control [12]: 100%

CNC(=O)Nc1ccc(-c2nc(N3CC4CCC(C3)O4)c3cnn(C4CCC5(CC4)OCCO5)c3n2)cc1
% of control [13]: 81%

Cn1cc(-n2cnc3c(NCc4nc5cc(Cl)c(Cl)cc5[nH]4)nc(N4CCOCC4)nc32)cn1
% of inhibition [14]: -8.35%
